Measurements reported in patent US20230357328A1, “SARS-CoV-2 PROTEIN-DERIVED PEPTIDE AND VACCINE CONTAINING SAME” (ONCOTHERAPY SCIENCE, INC., priority 2020, published 2023).
“Also recorded” adds a separate entry of the source. Where two headings read alike, the source gives them in different places.

Legend:
Format in all cases: cell-based, human
[1] = tested on: HLA-A*24:02-expressing target cells (TISI cells)
[2] = tested on: HLA-A*02:01-expressing target cells (T2 cells)
[3] = tested on: HLA-A*02:01-expressing target cells (T2 cells); remark: listed apart in the source
[4] = tested on: HLA-A*24:02-expressing target cells (TISI cells); remark: listed apart in the source
[5] = tested on: CD8-positive T cells in PBMCs of individuals not infected with SARS-CoV-2 (HLA-A*24:02-positive)
TISI cells = tested on: TISI cells
[6] = tested on: CD8-positive T cells in PBMCs of individuals who had recovered from COVID-19 (HLA-A*24:02-positive)
[7] = HLA-A*24:02-restricted CTL lines, peptide-pulsed TISI cells
[8] = HLA-A*02:01-restricted CTL lines, peptide-pulsed T2 cells
[9] = HLA-A*02:01-restricted, peptide-pulsed T2 cells vs T2 cells not pulsed
[10] = HLA-A*24:02-restricted, peptide-pulsed TISI cells vs TISI cells not pulsed
[11] = CTL clones from limiting dilution, TISI target cells

Sequence	IFN-γ production by CTL lines (ELISA) [1, 7]	Peptide-specific IFN-γ production (ELISPOT) [3, 9]	Peptide-specific IFN-γ production (ELISPOT) [4, 10]	Peptide-specific IFN-γ production by CTL clones (ELISA) (TISI cells; [11])	Detection of tetramer-positive CD8-positive T cells recognizing the peptide [6]	other results
AYANSVFNI [Peptide 1]	produced IFN-γ in a peptide-specific manner	peptide-specific IFN-γ production was observed	peptide-specific IFN-γ production was observed	showed IFN-γ production specific to		IFN-γ production by CTL lines (ELISA) [2, 8]: produced IFN-γ in a peptide-specific manner; Detection of tetramer-positive CD8-positive T cells recognizing the peptide [5]: detected
FTYASALWEI (an amino acid sequence derived from ORF1ab polyprotein of SARS-CoV-2) [Peptide 10, SARS-CoV-2 ORF1ab-derived 10mer peptide, position 4089]	produced IFN-γ in a peptide-specific manner		peptide-specific IFN-γ production was observed	showed IFN-γ production specific to	detected	
LWLLWPVTL [Peptide 13]					detected	IFN-γ production by CTL lines (ELISA) [1]: produced IFN-γ in a peptide-specific manner; IFN-γ production by CTL lines (ELISA) [2]: produced IFN-γ in a peptide-specific manner; Peptide-specific IFN-γ production (ELISPOT) [3]: peptide-specific IFN-γ production was observed; Peptide-specific IFN-γ production (ELISPOT) [4]: peptide-specific IFN-γ production was observed; Detection of tetramer-positive CD8-positive T cells recognizing the peptide [5]: detected
PFAMQMAYRF (an amino acid sequence derived from surface glycoprotein of SARS-CoV-2) [Peptide 5, SARS-CoV-2 S protein-derived 10mer peptide, position 897]	produced IFN-γ in a peptide-specific manner	no peptide-specific IFN-γ production was observed	peptide-specific IFN-γ production was observed		detected	
RYFKYWDQTY [Peptide 12]		peptide-specific IFN-γ production was observed	peptide-specific IFN-γ production was observed			
RYKLEGYAF [Peptide 9]					detected	IFN-γ production by CTL lines (ELISA) [1]: produced IFN-γ in a peptide-specific manner; Peptide-specific IFN-γ production (ELISPOT) [3]: no peptide-specific IFN-γ production was observed; Peptide-specific IFN-γ production (ELISPOT) [4]: peptide-specific IFN-γ production was observed; Peptide-specific IFN-γ production by CTL clones (ELISA) (TISI cells): showed IFN-γ production specific to
SYSLFDMSKF [Peptide 11]		no peptide-specific IFN-γ production was observed	peptide-specific IFN-γ production was observed			
TAYANSVFNI (an amino acid sequence derived from ORF1ab polyprotein of SARS-CoV-2) [Peptide 2, SARS-CoV-2 ORF1ab-derived 10mer peptide, position 5079]	produced IFN-γ in a peptide-specific manner	peptide-specific IFN-γ production was observed	peptide-specific IFN-γ production was observed	showed IFN-γ production specific to		IFN-γ production by CTL lines (ELISA) [2, 8]: produced IFN-γ in a peptide-specific manner
TYASALWEI [Peptide 4]					detected	IFN-γ production by CTL lines (ELISA) [1]: produced IFN-γ in a peptide-specific manner; Peptide-specific IFN-γ production (ELISPOT) [3]: peptide-specific IFN-γ production was observed; Peptide-specific IFN-γ production (ELISPOT) [4]: peptide-specific IFN-γ production was observed
VFMSEAKCW (an amino acid sequence derived from ORF1ab polyprotein of SARS-CoV-2) [Peptide 3, SARS-CoV-2 ORF1ab-derived 9mer peptide, position 5184]		no peptide-specific IFN-γ production was observed	peptide-specific IFN-γ production was observed			
YAYLRKHFSM (an amino acid sequence derived from ORF1ab polyprotein of SARS-CoV-2) [Peptide 15, SARS-CoV-2 ORF1ab-derived 10mer peptide, position 5138]		no peptide-specific IFN-γ production was observed	peptide-specific IFN-γ production was observed			
YDYLVSTQEF (an amino acid sequence derived from ORF1ab polyprotein of SARS-CoV-2) [Peptide 6, SARS-CoV-2 ORF1ab-derived 10mer peptide, position 3811]			peptide-specific IFN-γ production was not found; also recorded: no peptide-specific IFN-γ production was observed			
YYSQLMCQPI (an amino acid sequence derived from ORF1ab polyprotein of SARS-CoV-2) [Peptide 7, SARS-CoV-2 ORF1ab-derived 10mer peptide, position 2560]	produced IFN-γ in a peptide-specific manner	peptide-specific IFN-γ production was observed	peptide-specific IFN-γ production was observed	showed IFN-γ production specific to		Detection of tetramer-positive CD8-positive T cells recognizing the peptide [5]: detected
